Patent US12077503B2, “Substituted cyclic amides and their use as herbicides” (FMC CORPORATION, priority 2015, dated 2024)
Read-outs that look alike come from different tables or passages of the source.

Columns and labels:
Format in all cases: in vivo
[1] = test system: pigweed (Amaranthus retroflexus); test: Test A preemergence; settings: Amaranthus retroflexus, pre-emergence, 240 h; for pest or weed control at 125 g/ha: 125 g ai/ha; for pest or weed control at 500 g/ha: 500 g ai/ha
corn (Zea mays) = test: Test A postemergence; settings: Zea mays, post-emergence, 240 h, postemergence; for plant injury at 125 g/ha: 125 g ai/ha
Outline: (§1)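 Ratings of 0 (no effect) to 100 (complete control) come from visual comparison with untreated controls roughly 10 d after treatment. Test chemicals, formulated in a non-phytotoxic solvent mixture with surfactant, were applied either as a preemergence directed soil spray on seeded soil or postemergence to one- to two-leaf plants 2 to 10 cm tall.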

[2] = test system: ryegrass, Italian (Italian ryegrass, Lolium multiflorum); test: Test A postemergence; settings: Lolium multiflorum, post-emergence, 240 h, postemergence; for pest or weed control at 125 g/ha: 125 g ai/ha
Outline: as §1

Kochia (Kochia scoparia) = test: Test A postemergence; settings: Bassia scoparia, post-emergence, 240 h, postemergence; for pest or weed control at 125 g/ha: 125 g ai/ha
Outline: as §1

[3] = test system: giant foxtail (Setaria faberii); test: Test A postemergence; settings: Setaria faberi, post-emergence, 240 h, postemergence; for pest or weed control at 125 g/ha: 125 g ai/ha
Outline: as §1

[4] = test system: wheat (Triticum aestivum); test: Test A postemergence; settings: Triticum aestivum, post-emergence, 240 h, postemergence; for plant injury at 125 g/ha: 125 g ai/ha
Outline: as §1

[5] = test system: blackgrass (Alopecurus myosuroides); test: Test A postemergence; settings: Alopecurus myosuroides, post-emergence, 240 h, postemergence; for pest or weed control at 125 g/ha: 125 g ai/ha
Outline: as §1

[6] = test system: barnyardgrass (Echinochloa crus-galli); test: Test A postemergence; settings: Echinochloa crus-galli, post-emergence, 240 h, postemergence; for pest or weed control at 125 g/ha: 125 g ai/ha
Outline: as §1

[7] = test system: pigweed (Amaranthus retroflexus); test: Test A postemergence; settings: Amaranthus retroflexus, post-emergence, 240 h, postemergence; for pest or weed control at 125 g/ha: 125 g ai/ha
Outline: as §1

[8] = test system: Galium (catchweed bedstraw, Galium aparine); test: Test A postemergence; settings: Galium, post-emergence, 240 h, postemergence; for pest or weed control at 125 g/ha: 125 g ai/ha
Outline: as §1

[9] = test system: ragweed (common ragweed, Ambrosia elatior); test: Test A postemergence; settings: Ambrosia artemisiifolia, post-emergence, 240 h, postemergence; for pest or weed control at 125 g/ha: 125 g ai/ha
Outline: as §1

[10] = test system: sedge, umbrella (small-flower umbrella sedge, Cyperus difformis); test: Test B flooded paddy test; settings: Cyperus difformis, Flood, 250 g ai/ha, read-out: Sedge, Umbrella plant response rating
Outline: (§2)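 Visual ratings (0 none to 100 complete control) are relative to untreated plants, taken 13–15 d after treatment in a greenhouse. Test material went straight into floodwater standing 3 cm above the soil, kept constant, on plants at the 2-leaf stage.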

[11] = test system: ducksalad (Heteranthera limosa); test: Test B flooded paddy test; settings: Heteranthera limosa, Flood, 250 g ai/ha, read-out: Ducksalad plant response rating
Outline: as §2

rice (Oryra sativa) = test: Test B flooded paddy test; settings: Oryza sativa, Flood, 250 g ai/ha, read-out: Rice plant response rating
Outline: as §2

[12] = test system: barnyardgrass (Echinochloa crus-galli); test: Test B flooded paddy test; settings: Echinochloa crus-galli, Flood, 250 g ai/ha, read-out: Barnyardgrass plant response rating
Outline: as §2

[13] = preemergence, 0 to 100 scale where 0 is no effect and 100 is complete control, read-out: Pigweed plant response rating
[14] = scale of 0 to 100 where 0 is no effect and 100 is complete control
[15] = 0 to 100 scale where 0 is no effect and 100 is complete control

CCOc1ccc([C@H]2CNC(=O)[C@@H]2C(=O)Nc2cccc(F)c2F)cc1 [Compound 907]
pest or weed control at 125 g/ha [1, 13]: 0% | pest or weed control at 500 g/ha ([1]; Preemergence, visual injury vs untreated controls after approximately 10 d, read-out: Pigweed plant response rating (0 to 100 scale where 0 is no effect and 100 is complete control)): 0% | plant injury at 125 g/ha (corn (Zea mays); visual injury rating after approximately 10 d, read-out: Corn plant response rating (0 to 100 scale, 0 no effect, 100 complete control)): 0% | pest or weed control at 125 g/ha ([2]; visual injury rating after approximately 10 d, read-out: Ryegrass, Italian plant response rating (0 to 100 scale, 0 no effect, 100 complete control)): 0% | pest or weed control at 125 g/ha (Kochia (Kochia scoparia); visual injury rating after approximately 10 d, read-out: Kochia plant response rating (0 to 100 scale, 0 no effect, 100 complete control)): 0% | pest or weed control at 125 g/ha ([3]; visual injury rating after approximately 10 d, read-out: Foxtail, Giant plant response rating (0 to 100 scale, 0 no effect, 100 complete control)): 60% | plant injury at 125 g/ha ([4]; visual injury rating after approximately 10 d, read-out: Wheat plant response rating (0 to 100 scale, 0 no effect, 100 complete control)): 0% | pest or weed control at 125 g/ha ([5]; visual injury rating after approximately 10 d, read-out: Blackgrass plant response rating (0 to 100 scale, 0 no effect, 100 complete control)): 0% | pest or weed control at 125 g/ha ([6]; visual injury rating after approximately 10 d, read-out: Barnyardgrass plant response rating (0 to 100 scale, 0 no effect, 100 complete control)): 50% | pest or weed control at 125 g/ha ([7]; visual injury rating after approximately 10 d, read-out: Pigweed plant response rating (0 to 100 scale, 0 no effect, 100 complete control)): 0% | pest or weed control at 125 g/ha ([8]; visual injury rating after approximately 10 d, read-out: Galium plant response rating (0 to 100 scale, 0 no effect, 100 complete control)): 0% | pest or weed control at 125 g/ha ([9]; visual injury rating after approximately 10 d, read-out: Ragweed plant response rating (0 to 100 scale, 0 no effect, 100 complete control)): 0% | pest or weed control at 250 g/ha [10, 14]: 0% | pest or weed control at 250 g/ha [11, 14]: 50% | pest or weed control at 250 g/ha (rice (Oryra sativa); [14]): 0% | pest or weed control at 250 g/ha [12, 14]: 0%

Cc1c(F)cccc1NC(=O)[C@H]1C(=O)N(C)C[C@@H]1c1cc(F)cc(F)c1 [Compound 1140]
pest or weed control at 125 g/ha ([1]; preemergence, 0 to 100 scale where 0 is no effect and 100 is complete control, approx. 10 d, read-out: Pigweed plant response rating): 0% | pest or weed control at 500 g/ha [1, 13]: 40% | plant injury at 125 g/ha (corn (Zea mays); visual injury on 0 to 100 scale (0 no effect, 100 complete control), approx. 10 d, read-out: Corn plant response rating): 60% | plant injury at 500 g/ha (corn (Zea mays); 500 g ai/ha, 0 to 100 scale, 0 is no effect, 100 is complete control, read-out: Corn plant response rating): 70% | pest or weed control at 125 g/ha ([2]; visual injury on 0 to 100 scale (0 no effect, 100 complete control), approx. 10 d, read-out: Ryegrass, Italian plant response rating): 50% | pest or weed control at 500 g/ha ([2]; 500 g ai/ha, 0 to 100 scale, 0 is no effect, 100 is complete control, read-out: Ryegrass, Italian plant response rating): 70% | pest or weed control at 125 g/ha (Kochia (Kochia scoparia); visual injury on 0 to 100 scale (0 no effect, 100 complete control), approx. 10 d, read-out: Kochia plant response rating): 0% | pest or weed control at 500 g/ha (Kochia (Kochia scoparia); 500 g ai/ha, 0 to 100 scale, 0 is no effect, 100 is complete control, read-out: Kochia plant response rating): 40% | pest or weed control at 125 g/ha ([3]; visual injury on 0 to 100 scale (0 no effect, 100 complete control), approx. 10 d, read-out: Foxtail, Giant plant response rating): 90% | pest or weed control at 500 g/ha ([3]; 500 g ai/ha, 0 to 100 scale, 0 is no effect, 100 is complete control, read-out: Foxtail, Giant plant response rating): 90% | plant injury at 125 g/ha ([4]; visual injury on 0 to 100 scale (0 no effect, 100 complete control), approx. 10 d, read-out: Wheat plant response rating): 30% | plant injury at 500 g/ha ([4]; 500 g ai/ha, 0 to 100 scale, 0 is no effect, 100 is complete control, read-out: Wheat plant response rating): 70% | pest or weed control at 125 g/ha ([5]; visual injury on 0 to 100 scale (0 no effect, 100 complete control), approx. 10 d, read-out: Blackgrass plant response rating): 30% | pest or weed control at 500 g/ha ([5]; 500 g ai/ha, 0 to 100 scale, 0 is no effect, 100 is complete control, read-out: Blackgrass plant response rating): 70% | pest or weed control at 125 g/ha ([6]; visual injury on 0 to 100 scale (0 no effect, 100 complete control), approx. 10 d, read-out: Barnyardgrass plant response rating): 90% | pest or weed control at 500 g/ha ([6]; 500 g ai/ha, 0 to 100 scale, 0 is no effect, 100 is complete control, read-out: Barnyardgrass plant response rating): 90% | pest or weed control at 125 g/ha ([7]; visual injury on 0 to 100 scale (0 no effect, 100 complete control), approx. 10 d, read-out: Pigweed plant response rating): 0% | pest or weed control at 500 g/ha ([7]; 500 g ai/ha, 0 to 100 scale, 0 is no effect, 100 is complete control, read-out: Pigweed plant response rating): 0% | pest or weed control at 125 g/ha ([8]; visual injury on 0 to 100 scale (0 no effect, 100 complete control), approx. 10 d, read-out: Galium plant response rating): 40% | pest or weed control at 500 g/ha ([8]; 500 g ai/ha, 0 to 100 scale, 0 is no effect, 100 is complete control, read-out: Galium plant response rating): 50% | pest or weed control at 125 g/ha ([9]; visual injury on 0 to 100 scale (0 no effect, 100 complete control), approx. 10 d, read-out: Ragweed plant response rating): 0% | pest or weed control at 500 g/ha ([9]; 500 g ai/ha, 0 to 100 scale, 0 is no effect, 100 is complete control, read-out: Ragweed plant response rating): 30% | pest or weed control at 250 g/ha [10, 15]: 0% | pest or weed control at 250 g/ha [11, 15]: 100% | pest or weed control at 250 g/ha (rice (Oryra sativa); [15]): 0% | pest or weed control at 250 g/ha [12, 15]: 75%
